Experimental data as given in US20060276440A1, “Treatment of inflammatory disorders” (priority 2005, published 2006).
Entries after “also recorded” stand apart in the source; their conditions may differ.

Columns and labels:
IL-1 pathway = assay: 4A1 Sentinel line IL-1-stimulated luciferase reporter assay; type: cell-based; details: Homo sapiens; 4A1 cells
Description: Reporter activities of Sentinel® clones were measured using the Steady-Glo® Luciferase assay system (Promega, Madison, Wis.), according to the manufacturer's instructions, and were normalized to cell numbers based on nucleic acid quantification (CyQuant® cell proliferations assay, Molecular Probes/Invitrogen, Carlsbad, Calif.). In order to identify potential anti-inflammatory compounds, the OSM-responding Sentinel® clone 4A1 was used for a library screen of approximately 1800 compounds.
Sentinel lines were developed by utilizing promoter trapping technology in combination with positive and negative selections to efficiently deliver reporter genes into endogenously regulated genetic sites. Using this approach, a Sentinel cell line, 4A1, in A549 lung carcinoma cells that responded specifically to OSM and IL-1 stimulation among a panel of cytokines and active compounds was established (FIG. 9A).
To identify compounds that inhibit OSM signaling, the collection of approximately 1800 compounds was screened using the 4A1 Sentinel line.

MMP-13 [1] = assay: IL-1/OSM-stimulated pro-MMP-13 production in SW-1353 cells (ELISA); type: cell-based, human; details: Homo sapiens
Source text: To test the compounds identified in the preliminary reporter (luciferase) activity […]® line 4A1 screen for inhibition of OSM signaling in a more physiologically relevant environment, a human cell line involved in an inflammatory disease was adapted. The human cartilage cell line SW-1353 was selected.
In the human cartilage cell line SW-1353, while IL-1 is believed to activate expression of collagenases to a small degree and OSM is believed to have no effect on collagenase expression, a combination of IL-1 and OSM is believed to lead to a synergistic activation of collagenases to much higher levels (S. Cowell et al., Biochem J 331 (Pt 2), 453 (Apr. 15, 1998). Regulation of MMP-13 in SW-1353 cells is, therefore, believed to provide a biomarker which can be used to monitor IL-1/OSM-mediated signal transduction events in secondary assays.
(§1) The same supernatants of culture media used in the primary screen were assayed for IL-1/OSM-stimulated pro-MMP-13 production and MMP-2 production by enzyme-linked immunosorbent assay (ELISA).
(§2) For matrix metalloproteinase (MMP) measures, SW1353 cells were grown to confluence in 24 well plates, washed in DMEM (with Ham's F12) and placed in 500 ul of serum free DMEM/F-12 with 0.2% lactalbumin hydrosylate with and without OsM/IL-1. After 24 hrs, supernatants were collected and the amounts of proMMP13, totalMMP2, and proMMP1 were measured using Quantikine® ELISA kit for human MMPs (R & D systems, Minneapolis, Minn.). All MMP measures were normalized to viable cell numbers based on a tetrazolium (MTS) colorimetric measure (Promega, Madison, Wis.).

MMP-13 [2] = assay: IL-1-stimulated pro-MMP-13 production in SW1353 cells (ELISA); type: cell-based; details: Homo sapiens, IL-1 alone
Description: as §2
The human chondrosarcoma cell line, SW1353, was used as the cell system for examining CA4's effect on OSM- and IL-1-mediated signal transduction. […] Therefore, MMP-13 was used as a surrogate marker of CA4 effects on OSM and IL-1 signaling in SW1353 cells. […] This observation is in agreement with that obtained with the 4A1 Sentinel® reporter line.

MMP-2 = MMP-2 production in SW1353 cells (ELISA, control); type: cell-based, human
Description: MMP-2 production can be used as control for the potential side-effects of compounds. This is because MMP-2 levels are not believed to change in response to IL-1/OSM.
as §1, §2
(§3) Multiple control assays were performed to investigate the selectivity of CA4 action. Matrix metalloproteinase-2 (MMP-2) production in SW1353 cells was tested. Mutation of MMP-2 causes a multicentric osteolysis and arthritis syndrome (Martignetti et al., Nat Genet 28, 261-265 (2001) the entire contents of which are incorporated herein by reference), and theoretically its expression should not be affected in treating RA. CA4 at approximately 110 nM had no effect on production of MMP-2 (FIG. 12E). An A549 Sentinel line that responded to TGF-β was then tested.

OSM signaling = assay: OSM-responsive SW1353 Sentinel cell line luciferase reporter; type: cell-based, human; details: FIG. 12C, listed as CA4
Source text: Taken together, it appears that CA4 interferes as well with OSM signal transduction that led to the synergistic upregulation of pro-MMP-13 by OSM/IL-1 in SW1353 cells.

TGF-β = assay: A549 Sentinel line TGF-β-stimulated reporter activity; type: cell-based, human; details: as high as 1 μM; data not shown
Description: as §3

CD3 = assay: GFP-reporter Jurkat T-cell line, anti-CD3 antibody-upregulated reporter; type: cell-based; details: at 20 nM; data not shown
NF-κB = NF-κB reporter activity in transfected SW1353 cells; type: cell-based, human; details: 2 hrs pretreatment prior to IL-1/OSM, FIG. 14D
Description: SW1353 cells were plated at 100,000 in 24-well plates and cultured overnight in 10% FCS-DMEM/F-12. The following day, cells were transfected with 0.3 ug total DNA (pNF-kB-Luc reporter plasmid, BD biosciences San Jose, Calif.) using Lipofectamine™ 2000 (Invitrogen), according to the manufacturer's instructions. After overnight incubation, cells were washed in F12 media, pretreated with CA4 for 2 hrs, and then activated with IL-1/OSM (6 hrs) before measuring reporter activity.
The cellular and molecular mechanisms by which CA4 repressed pro-MMP-13 production, using SW1353 as the model system were investigated. […] The pathways that mediate OSM and IL-1 signal transduction were then examined. Using inhibitors that target key components of the pathways, it was shown that JAK/STAT, p38, JNK, and NF-κB pathways were important for OSM/IL-1-stimulated pro-MMP-13 production (FIG. 13B-E), but not ERK or Cox1/2 pathways (data not shown). These pathways were then examined to ascertain if activities of key components of these pathways were affected by CA4. […] Cells were pretreated with CA4 (20 nM) for 2 hrs and then activated with IL-1/OSM for 15 minutes. JNK (pT183/pY185), and ERK1/2 (pT202/pY204) phosphorylation was also not affected by CA4 (data not shown). […] Cells were pre-treated with CA4 or kamebakaurin (KA), for 2 hrs prior to IL-1/OSM activation. […]

**Q.** COc1ccc(/C=C\c2cc(OC)c(OC)c(OC)c2)cc1O [Combretastatin A4 (1), (Z)-5-(3,4,5-trimethoxystyryl)-2-methoxyphenol] was tested. Which IC50 (IL-1 pathway) did it give?
**A.** 6.9 ± 0.4 nM

**Q.** And the IC50 (MMP-13 [1]; SW1353, SW-1353, IL-1/OSM-stimulated, secondary screen (Example 2), read-out: IC50, inhibition of MMP-13 (pro-MMP-13) production)?
**A.** 2 nM

**Q.** What about the IC50 (MMP-13 [1]; SW1353 cells, mean (Examples 8, 10), read-out: IC50 values by pro-MMP-13 (OSM/IL-1-mediated production)) of the same compound?
**A.** 5.6 ± 1.3 nM

**Q.** And the IC50 (MMP-13 [2])?
**A.** 5.2 ± 1.9 nM

**Q.** And the “effect on production of MMP-2” value (MMP-2; SW1353, CA4 at approximately 110 nM, FIG. 12E, listed as CA4)?
**A.** no effect; also recorded: failed to inhibit MMP-2 production

**Q.** And the “inhibitory effect on MMP-13 expression compared to MMP-2 expression” value (MMP-2; SW-1353, FIG. 5, listed as 1)?
**A.** greater inhibitory effects on MMP-13 expression compared to MMP-2 expression; also recorded: preferentially inhibit MMP-13 expression compared to MMP-2 expression

**Q.** And the “OSM-induced reporter luciferase activity” value (OSM signaling)?
**A.** dose-dependently inhibited the reporter luciferase activity

**Q.** What about the “effect on TGF-β-stimulated reporter activity” value (TGF-β) of the same compound?
**A.** no effect

**Q.** What about the “effect on CD3-mediated increase of GFP fluorescence” value (CD3) of the same compound?
**A.** did not have any effect

**Q.** And the NF-κB reporter activity (NF-κB)?
**A.** did not inhibit
